Data as given in BigSolDB 2.1.

Cc1cc(=O)oc2cc(N)ccc12
solubility (mole fraction)
Conditions | 278.15 K | 283.15 K | 288.15 K | 293.15 K | 298.15 K | 303.15 K | 308.15 K | 313.15 K | 318.15 K | 323.15 K
in DMF | 0.0579 | 0.0725 | 0.0902 | 0.108 | 0.131 | 0.156 | 0.189 | 0.219 | 0.251 | 0.292
in ethanol | 0.000941 | 0.00101 | 0.00117 | 0.00123 | 0.00134 | 0.00161 | 0.00177 | 0.00214 | 0.00233 | 0.00262
in ethylene glycol | 0.000384 | 0.000432 | 0.000531 | 0.000663 | 0.000812 | 0.000974 | 0.00112 | 0.0013 | 0.00145 | 0.00163
in isopropanol | 0.00103 | 0.00114 | 0.00127 | 0.00152 | 0.00173 | 0.00188 | 0.00208 | 0.00237 | 0.00261 | 0.00294
in water | 1.07e-05 | 1.38e-05 | 1.74e-05 | 2.18e-05 | 2.75e-05 | 3.41e-05 | 4.18e-05 | 5.14e-05 | 6.27e-05 | 7.57e-05
